PMC6934184, “Selective DNA-PKcs inhibition extends the therapeutic index of localized radiotherapy and chemotherapy” (The Journal of Clinical Investigation, 2019)

Biological target: T1, LYN A (Homo sapiens, UniProt P07948)
T1 construct: purchased Thermo Fisher Scientific (Life Technologies) SelectScreen
Assay: SelectScreen Z'LYTE
Assay type: biochemical
Procedure, shortened: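 Percent values come from Thermo SelectScreen profiling of NU5455, combining activity and binding assays. CSF1R was run in Z'LYTE format at Km app ATP, and CAMK1 in Adapta format with ATP listed at 10.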

T1 sequence (P07948 whole entry): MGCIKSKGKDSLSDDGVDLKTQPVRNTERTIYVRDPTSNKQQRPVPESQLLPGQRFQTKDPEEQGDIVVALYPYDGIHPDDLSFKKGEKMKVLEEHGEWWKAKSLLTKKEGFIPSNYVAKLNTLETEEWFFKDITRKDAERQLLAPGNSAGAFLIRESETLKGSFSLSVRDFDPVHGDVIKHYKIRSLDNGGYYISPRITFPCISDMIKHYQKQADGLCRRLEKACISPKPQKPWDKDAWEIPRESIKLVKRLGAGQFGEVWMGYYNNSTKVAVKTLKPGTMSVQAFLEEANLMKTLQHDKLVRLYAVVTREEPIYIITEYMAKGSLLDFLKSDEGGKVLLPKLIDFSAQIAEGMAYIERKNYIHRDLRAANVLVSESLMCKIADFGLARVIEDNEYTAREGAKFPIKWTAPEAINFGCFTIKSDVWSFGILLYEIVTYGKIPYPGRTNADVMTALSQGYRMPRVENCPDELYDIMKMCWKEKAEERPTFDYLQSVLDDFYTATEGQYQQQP

Q: CN(C(=O)CN1CCOCC1)c1ccc2sc3c(-c4cccc5c(=O)cc(N6CC7CCC(C6)O7)oc45)cccc3c2c1 [NU5455] was tested. Which inhibition at 1 µM did it give?
A: 15.2%
